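Cultured in 96-well plates, cells were exposed to test compound for 48 hours across five concentrations. GI50 marks 50% less growth. TGI: concentration producing complete growth inhibition.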
Assays:
Experiment in all cases: NCI-60 cell line screen, 48 h
786-0 renal = system: 786-0 renal
A498 renal = system: A498 renal
A549 NSCLC = system: A549 NSCLC
ACHN renal = system: ACHN renal
BT-549 breast = system: BT-549 breast
CAKI-1 renal = system: CAKI-1 renal
CCRF-CEM leukemia = system: CCRF-CEM leukemia
DU-145 prostate = system: DU-145 prostate
EKVX NSCLC = system: EKVX NSCLC
HCC-2998 colon = system: HCC-2998 colon
HCT-116 colon = system: HCT-116 colon
HCT-15 colon = system: HCT-15 colon
HL-60(TB) leukemia = system: HL-60(TB) leukemia
HOP-62 NSCLC = system: HOP-62 NSCLC
HOP-92 NSCLC = system: HOP-92 NSCLC
HS 578T breast = system: HS 578T breast
HT29 colon = system: HT29 colon
IGROV1 ovarian = system: IGROV1 ovarian
K-562 leukemia = system: K-562 leukemia
KM12 colon = system: KM12 colon
M14 melanoma = system: M14 melanoma
MALME-3M melanoma = system: MALME-3M melanoma
MCF7 breast = system: MCF7 breast
MDA-MB-231 breast = system: MDA-MB-231 breast
MDA-MB-435 = system: MDA-MB-435
NCI-H226 lung = system: NCI-H226 lung
NCI-H23 lung = system: NCI-H23 lung
NCI-H460 lung = system: NCI-H460 lung
NCI-H522 lung = system: NCI-H522 lung
OVCAR-3 ovarian = system: OVCAR-3 ovarian
OVCAR-5 ovarian = system: OVCAR-5 ovarian
OVCAR-8 ovarian = system: OVCAR-8 ovarian
PC-3 prostate = system: PC-3 prostate
RXF 393 renal = system: RXF 393 renal
SF-268 CNS = system: SF-268 CNS
SF-295 CNS = system: SF-295 CNS
SF-539 CNS = system: SF-539 CNS
SK-MEL-2 melanoma = system: SK-MEL-2 melanoma
SK-MEL-28 melanoma = system: SK-MEL-28 melanoma
SK-MEL-5 melanoma = system: SK-MEL-5 melanoma
SK-OV-3 ovarian = system: SK-OV-3 ovarian
SN12C renal = system: SN12C renal
SNB-19 CNS = system: SNB-19 CNS
SNB-75 CNS = system: SNB-75 CNS
SW-620 colon = system: SW-620 colon
TK-10 renal = system: TK-10 renal
U251 CNS = system: U251 CNS
UACC-257 melanoma = system: UACC-257 melanoma
UACC-62 melanoma = system: UACC-62 melanoma
UO-31 renal = system: UO-31 renal

SMILES: COc1cccc(Nc2ncnc3cc(NC(=O)CCl)ccc23)c1
- GI50 (786-0 renal): 1550 nM
- TGI (786-0 renal): 3100 nM
- GI50 (A498 renal): 1720 nM
- TGI (A498 renal): 3810 nM
- GI50 (A549 NSCLC): 1480 nM
- TGI (A549 NSCLC): 3110 nM
- GI50 (ACHN renal): 1080 nM
- TGI (ACHN renal): 2340 nM
- GI50 (BT-549 breast): 1230 nM
- TGI (BT-549 breast): 2690 nM
- GI50 (CAKI-1 renal): 1060 nM
- TGI (CAKI-1 renal): 2310 nM
- GI50 (CCRF-CEM leukemia): 392 nM
- TGI (CCRF-CEM leukemia): 2160 nM
- GI50 (DU-145 prostate): 1230 nM
- TGI (DU-145 prostate): 2600 nM
- GI50 (EKVX NSCLC): 1560 nM
- TGI (EKVX NSCLC): 4490 nM
- GI50 (HCC-2998 colon): 1810 nM
- TGI (HCC-2998 colon): 3700 nM
- GI50 (HCT-116 colon): 1020 nM
- TGI (HCT-116 colon): 2470 nM
- GI50 (HCT-15 colon): 353 nM
- TGI (HCT-15 colon): 1620 nM
- GI50 (HL-60(TB) leukemia): 1270 nM
- TGI (HL-60(TB) leukemia): 3540 nM
- GI50 (HOP-62 NSCLC): 1480 nM
- TGI (HOP-62 NSCLC): 3060 nM
- GI50 (HOP-92 NSCLC): 1700 nM
- TGI (HOP-92 NSCLC): 3400 nM
- GI50 (HS 578T breast): 1840 nM
- TGI (HS 578T breast): 8150 nM
- GI50 (HT29 colon): 499 nM
- TGI (HT29 colon): 1850 nM
- GI50 (IGROV1 ovarian): 568 nM
- TGI (IGROV1 ovarian): 2250 nM
- GI50 (K-562 leukemia): 343 nM
- TGI (K-562 leukemia): 2000 nM
- GI50 (KM12 colon): 1360 nM
- TGI (KM12 colon): 2900 nM
- GI50 (M14 melanoma): 1390 nM
- TGI (M14 melanoma): 3000 nM
- GI50 (MALME-3M melanoma): 1070 nM
- TGI (MALME-3M melanoma): 2510 nM
- GI50 (MCF7 breast): 789 nM
- TGI (MCF7 breast): 3190 nM
- GI50 (MDA-MB-231 breast): 1270 nM
- TGI (MDA-MB-231 breast): 2600 nM
- GI50 (MDA-MB-435): 821 nM
- TGI (MDA-MB-435): 2210 nM
- GI50 (NCI-H226 lung): 1910 nM
- TGI (NCI-H226 lung): 4550 nM
- GI50 (NCI-H23 lung): 1610 nM
- TGI (NCI-H23 lung): 3920 nM
- GI50 (NCI-H460 lung): 1320 nM
- TGI (NCI-H460 lung): 3080 nM
- GI50 (NCI-H522 lung): 388 nM
- TGI (NCI-H522 lung): 1630 nM
- GI50 (OVCAR-3 ovarian): 768 nM
- TGI (OVCAR-3 ovarian): 2220 nM
- GI50 (OVCAR-5 ovarian): 1610 nM
- TGI (OVCAR-5 ovarian): 3020 nM
- GI50 (OVCAR-8 ovarian): 1880 nM
- TGI (OVCAR-8 ovarian): 5160 nM
- GI50 (PC-3 prostate): 1120 nM
- TGI (PC-3 prostate): 2460 nM
- GI50 (RXF 393 renal): 1460 nM
- TGI (RXF 393 renal): 2940 nM
- GI50 (SF-268 CNS): 1420 nM
- TGI (SF-268 CNS): 3240 nM
- GI50 (SF-295 CNS): 1680 nM
- TGI (SF-295 CNS): 3190 nM
- GI50 (SF-539 CNS): 1520 nM
- TGI (SF-539 CNS): 2920 nM
- GI50 (SK-MEL-2 melanoma): 1690 nM
- TGI (SK-MEL-2 melanoma): 3480 nM
- GI50 (SK-MEL-28 melanoma): 1650 nM
- TGI (SK-MEL-28 melanoma): 3240 nM
- GI50 (SK-MEL-5 melanoma): 1250 nM
- TGI (SK-MEL-5 melanoma): 2550 nM
- GI50 (SK-OV-3 ovarian): 1580 nM
- TGI (SK-OV-3 ovarian): 3150 nM
- GI50 (SN12C renal): 1150 nM
- TGI (SN12C renal): 2440 nM
- GI50 (SNB-19 CNS): 1500 nM
- TGI (SNB-19 CNS): 3220 nM
- GI50 (SNB-75 CNS): 379 nM
- TGI (SNB-75 CNS): 2280 nM
- GI50 (SW-620 colon): 612 nM
- TGI (SW-620 colon): 2100 nM
- GI50 (TK-10 renal): 1200 nM
- TGI (TK-10 renal): 2520 nM
- GI50 (U251 CNS): 330 nM
- TGI (U251 CNS): 1120 nM
- GI50 (UACC-257 melanoma): 1410 nM
- TGI (UACC-257 melanoma): 3020 nM
- GI50 (UACC-62 melanoma): 1130 nM
- TGI (UACC-62 melanoma): 2480 nM
- GI50 (UO-31 renal): 1110 nM
- TGI (UO-31 renal): 2430 nM

Source: PubChem BioAssay (NCI)
